Results reported in patent US20260022142A1, “MACROCYCLIC IMMUNOMODULATORS” (Bristol-Myers Squibb Company, priority 2022, published 2026).
Numbered stars: 1 amine (or outer) side, 2 acyl side, 3 side chain; on linkers, the order of the positions; unused ones are H or OH. Bridge positions count the residues as written; N and C are the ends. Square brackets hold non-standard residues; d marks the D form. Peptide text beside a SMILES is read from it. * marks the point of attachment. Phe(3-CF3) = N[C@@H](Cc1cccc(C(F)(F)F)c1)C(=O)O; Ala(morpholin-4-yl) = N[C@@H](CN1CCOCC1)C(=O)O; Phe(4-COOH) = N[C@@H](Cc1ccc(C(=O)O)cc1)C(=O)O; Bip = N[C@@H](Cc1ccc(-c2ccccc2)cc1)C(=O)O; γGlu = O=C(O)[C@H](CCC(=O)[*:2])N[*:1]; βAsp = O=C(O)[C@H](CC(=O)[*:2])N[*:1]; NH(CH2)12COOH = O=C(O)CCCCCCCCCCCCN*; Val(3-OH) = CC(C)(O)[C@H](N)C(=O)O; Cha = N[C@@H](CC1CCCCC1)C(=O)O; Carboxymethyl = O=C(O)C*; Orn = NCCC[C@H](N)C(=O)O; Dab = NCC[C@H](N)C(=O)O; Nva = CCC[C@H](N)C(=O)O; Abu = CC[C@H](N)C(=O)O; AEEA = NCCOCCOCC(=O)O

Target: T1, PD-1/PD-L1 interaction (PE-labeled human PD-L1-Ig binding to Jurkat cell line over-expressing human PD-1) (Homo sapiens, UniProt Q15116)
T1 construct: expressed in transfected cells; host or cells: Jurkat
Test: Jurkat-PD-1 Cell Binding High-Content Screening Assay (CBA)
Assay type: cell-based
Conditions: Jurkat cell line over-expressing human PD-1; PE-labeled PD-L1-Ig 20 nM final; read-out: Jurkat hPD1-PDL1 IC50
Outline: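 First, compound is added to PD-1-expressing Jurkat cells in serum-containing DMEM and left 2 h at 37° C. Next, PE-conjugated PD-L1-Ig is introduced at 20 nM final concentration for 1 hour. Finally, cells are fixed in 4% paraformaldehyde with Hoechst 33342, washed and imaged.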

T1 sequence (Q15116 25-288): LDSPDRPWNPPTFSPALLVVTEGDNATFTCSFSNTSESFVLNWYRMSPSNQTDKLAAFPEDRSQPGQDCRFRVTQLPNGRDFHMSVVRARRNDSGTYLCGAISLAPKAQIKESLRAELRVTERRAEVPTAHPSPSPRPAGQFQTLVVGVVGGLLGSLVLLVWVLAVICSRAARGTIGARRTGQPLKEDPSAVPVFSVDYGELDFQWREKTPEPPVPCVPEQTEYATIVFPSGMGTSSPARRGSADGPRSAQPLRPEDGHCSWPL

SMILES | IC50
CCC[C@@H]1NC(=O)CSC[C@@H](C(=O)N[C@@H](CCN)C(=O)NCCOCCOCC(=O)N[C@@H](CC(=O)NCCOCCOCC(=O)NCCCCCCCCCCCCC(=O)O)C(=O)O)NC(=O)[C@H](CO)NC(=O)[C@H](C(C)(C)O)NC(=O)[C@H](CC2CCCCC2)NC(=O)[C@H](CCN)NC(=O)[C@@H](CC(C)C)NC(=O)[C@H](CCCN)NC(=O)[C@H](Cc2ccc(C(=O)O)cc2)NC(=O)[C@H](Cc2ccc(-c3ccccc3)cc2)NC(=O)[C@H](Cc2ccc(C(=O)O)cc2)NC(=O)[C@H](Cc2cccc(C(F)(F)F)c2)NC(=O)[C@H](CC(=O)O)NC(=O)[C@H](Cc2ccc(OCC(=O)O)cc2)NC1=O [Compound 2931] ({CH2CO}-[Nva]Y(Carboxymethyl)D[Phe(3-CF3)][Phe(4-COOH)][Bip][Phe(4-COOH)][Orn][dL][Dab][Cha][Val(3-OH)]SC[Dab][AEEA][βAsp][AEEA]-{NH(CH2)12COOH}; thioether N-14) | 26.3 nM
CC[C@@H]1NC(=O)CSC[C@@H](C(=O)N[C@@H](CCN)C(=O)NCCOCCOCC(=O)N[C@@H](CCC(=O)NCCOCCOCC(=O)NCCCCCCCCCCCCC(=O)O)C(=O)O)NC(=O)[C@H](CO)NC(=O)[C@H](C(C)(C)O)NC(=O)[C@H](CC2CCCCC2)NC(=O)[C@H](CCN)NC(=O)[C@@H](CC(C)C)NC(=O)[C@H](CCCN)NC(=O)[C@H](Cc2ccc(C(=O)O)cc2)NC(=O)[C@H](Cc2ccc(-c3ccccc3)cc2)NC(=O)[C@H](Cc2ccc(C(=O)O)cc2)NC(=O)[C@H](Cc2cccc(C(F)(F)F)c2)NC(=O)[C@H](CC(=O)O)NC(=O)[C@H](Cc2ccc(OCC(=O)O)cc2)NC1=O [Compound 2932] ({CH2CO}-[Abu]Y(Carboxymethyl)D[Phe(3-CF3)][Phe(4-COOH)][Bip][Phe(4-COOH)][Orn][dL][Dab][Cha][Val(3-OH)]SC[Dab][AEEA][γGlu][AEEA]-{NH(CH2)12COOH}; thioether N-14) | 33 nM
CC[C@@H]1NC(=O)CSC[C@@H](C(=O)N[C@@H](CCN)C(=O)NCCOCCOCC(=O)N[C@@H](CC(=O)NCCOCCOCC(=O)NCCCCCCCCCCCCC(=O)O)C(=O)O)NC(=O)[C@H](CO)NC(=O)[C@H](C(C)(C)O)NC(=O)[C@H](CC2CCCCC2)NC(=O)[C@H](CCN)NC(=O)[C@@H](CC(C)C)NC(=O)[C@H](CCCN)NC(=O)[C@H](Cc2ccc(C(=O)O)cc2)NC(=O)[C@H](Cc2ccc(-c3ccccc3)cc2)NC(=O)[C@H](Cc2ccc(C(=O)O)cc2)NC(=O)[C@H](Cc2cccc(C(F)(F)F)c2)NC(=O)[C@H](CC(=O)O)NC(=O)[C@H](Cc2ccc(OCC(=O)O)cc2)NC1=O [Compound 2933] ({CH2CO}-[Abu]Y(Carboxymethyl)D[Phe(3-CF3)][Phe(4-COOH)][Bip][Phe(4-COOH)][Orn][dL][Dab][Cha][Val(3-OH)]SC[Dab][AEEA][βAsp][AEEA]-{NH(CH2)12COOH}; thioether N-14) | 26.5 nM
CC(C)C[C@H]1NC(=O)[C@H](CCCN)NC(=O)[C@H](Cc2ccc(C(=O)O)cc2)NC(=O)[C@H](Cc2ccc(-c3ccccc3)cc2)NC(=O)[C@H](Cc2ccc(C(=O)O)cc2)NC(=O)[C@H](Cc2cccc(C(F)(F)F)c2)NC(=O)[C@H](CC(=O)O)NC(=O)[C@H](Cc2ccc(OCC(=O)O)cc2)NC(=O)[C@H](C)NC(=O)CSC[C@@H](C(=O)N[C@@H](CCN)C(=O)NCCOCCOCC(=O)N[C@@H](CCC(=O)NCCOCCOCC(=O)NCCCCCCCCCCCCC(=O)O)C(=O)O)NC(=O)[C@H](CO)NC(=O)[C@H](C(C)(C)O)NC(=O)[C@H](CC2CCCCC2)NC(=O)[C@H](CCN)NC1=O [Compound 2934] ({CH2CO}-AY(Carboxymethyl)D[Phe(3-CF3)][Phe(4-COOH)][Bip][Phe(4-COOH)][Orn][dL][Dab][Cha][Val(3-OH)]SC[Dab][AEEA][γGlu][AEEA]-{NH(CH2)12COOH}; thioether N-14) | 39 nM
CC(C)C[C@H]1NC(=O)[C@H](CCCN)NC(=O)[C@H](Cc2ccc(C(=O)O)cc2)NC(=O)[C@H](Cc2ccc(-c3ccccc3)cc2)NC(=O)[C@H](Cc2ccc(C(=O)O)cc2)NC(=O)[C@H](Cc2cccc(C(F)(F)F)c2)NC(=O)[C@H](CC(=O)O)NC(=O)[C@H](Cc2ccc(OCC(=O)O)cc2)NC(=O)[C@H](C)NC(=O)CSC[C@@H](C(=O)N[C@@H](CCN)C(=O)NCCOCCOCC(=O)N[C@@H](CC(=O)NCCOCCOCC(=O)NCCCCCCCCCCCCC(=O)O)C(=O)O)NC(=O)[C@H](CO)NC(=O)[C@H](C(C)(C)O)NC(=O)[C@H](CC2CCCCC2)NC(=O)[C@H](CCN)NC1=O [Compound 2935] ({CH2CO}-AY(Carboxymethyl)D[Phe(3-CF3)][Phe(4-COOH)][Bip][Phe(4-COOH)][Orn][dL][Dab][Cha][Val(3-OH)]SC[Dab][AEEA][βAsp][AEEA]-{NH(CH2)12COOH}; thioether N-14) | 42.4 nM
CC(C)C[C@@H]1NC(=O)CSC[C@@H](C(=O)N[C@@H](CCN)C(=O)NCCOCCOCC(=O)N[C@@H](CC(=O)NCCOCCOCC(=O)NCCCCCCCCCCCCC(=O)O)C(=O)O)NC(=O)[C@H](CO)NC(=O)[C@H](C(C)(C)O)NC(=O)[C@H](CC2CCCCC2)NC(=O)[C@H](CCN)NC(=O)[C@@H](CC(C)C)NC(=O)[C@H](CCCN)NC(=O)[C@H](Cc2ccc(C(=O)O)cc2)NC(=O)[C@H](Cc2ccc(-c3ccccc3)cc2)NC(=O)[C@H](Cc2ccc(C(=O)O)cc2)NC(=O)[C@H](Cc2cccc(C(F)(F)F)c2)NC(=O)[C@H](CC(=O)O)NC(=O)[C@H](Cc2ccc(OCC(=O)O)cc2)NC1=O [Compound 2937] ({CH2CO}-LY(Carboxymethyl)D[Phe(3-CF3)][Phe(4-COOH)][Bip][Phe(4-COOH)][Orn][dL][Dab][Cha][Val(3-OH)]SC[Dab][AEEA][βAsp][AEEA]-{NH(CH2)12COOH}; thioether N-14) | 11.7 nM
COC[C@@H]1NC(=O)CSC[C@@H](C(=O)N[C@@H](CCN)C(=O)NCCOCCOCC(=O)N[C@@H](CCC(=O)NCCOCCOCC(=O)NCCCCCCCCCCCCC(=O)O)C(=O)O)NC(=O)[C@H](CO)NC(=O)[C@H](C(C)(C)O)NC(=O)[C@H](CC2CCCCC2)NC(=O)[C@H](CCN)NC(=O)[C@@H](CC(C)C)NC(=O)[C@H](CCCN)NC(=O)[C@H](Cc2ccc(C(=O)O)cc2)NC(=O)[C@H](Cc2ccc(-c3ccccc3)cc2)NC(=O)[C@H](Cc2ccc(C(=O)O)cc2)NC(=O)[C@H](Cc2cccc(C(F)(F)F)c2)NC(=O)[C@H](CC(=O)O)NC(=O)[C@H](Cc2ccc(OCC(=O)O)cc2)NC1=O [Compound 2938] ({CH2CO}-S(Me)Y(Carboxymethyl)D[Phe(3-CF3)][Phe(4-COOH)][Bip][Phe(4-COOH)][Orn][dL][Dab][Cha][Val(3-OH)]SC[Dab][AEEA][γGlu][AEEA]-{NH(CH2)12COOH}; thioether N-14) | 26.8 nM
CC(C)C[C@H]1NC(=O)[C@H](CCCN)NC(=O)[C@H](Cc2ccc(C(=O)O)cc2)NC(=O)[C@H](Cc2ccc(-c3ccccc3)cc2)NC(=O)[C@H](Cc2ccc(C(=O)O)cc2)NC(=O)[C@H](Cc2cccc(C(F)(F)F)c2)NC(=O)[C@H](CC(=O)O)NC(=O)[C@H](Cc2ccc(OCC(=O)O)cc2)NC(=O)[C@H](CN2CCOCC2)NC(=O)CSC[C@@H](C(=O)N[C@@H](CCN)C(=O)NCCOCCOCC(=O)N[C@@H](CCC(=O)NCCOCCOCC(=O)NCCCCCCCCCCCCC(=O)O)C(=O)O)NC(=O)[C@H](CO)NC(=O)[C@H](C(C)(C)O)NC(=O)[C@H](CC2CCCCC2)NC(=O)[C@H](CCN)NC1=O [Compound 2940] ({CH2CO}-[Ala(morpholin-4-yl)]Y(Carboxymethyl)D[Phe(3-CF3)][Phe(4-COOH)][Bip][Phe(4-COOH)][Orn][dL][Dab][Cha][Val(3-OH)]SC[Dab][AEEA][γGlu][AEEA]-{NH(CH2)12COOH}; thioether N-14) | 14.3 nM
CC(C)C[C@H]1NC(=O)[C@H](CCCN)NC(=O)[C@H](Cc2ccc(C(=O)O)cc2)NC(=O)[C@H](Cc2ccc(-c3ccccc3)cc2)NC(=O)[C@H](Cc2ccc(C(=O)O)cc2)NC(=O)[C@H](Cc2cccc(C(F)(F)F)c2)NC(=O)[C@H](CC(=O)O)NC(=O)[C@H](Cc2ccc(OCC(=O)O)cc2)NC(=O)[C@H](CN2CCOCC2)NC(=O)CSC[C@@H](C(=O)N[C@@H](CCN)C(=O)NCCOCCOCC(=O)N[C@@H](CC(=O)NCCOCCOCC(=O)NCCCCCCCCCCCCC(=O)O)C(=O)O)NC(=O)[C@H](CO)NC(=O)[C@H](C(C)(C)O)NC(=O)[C@H](CC2CCCCC2)NC(=O)[C@H](CCN)NC1=O [Compound 2941] ({CH2CO}-[Ala(morpholin-4-yl)]Y(Carboxymethyl)D[Phe(3-CF3)][Phe(4-COOH)][Bip][Phe(4-COOH)][Orn][dL][Dab][Cha][Val(3-OH)]SC[Dab][AEEA][βAsp][AEEA]-{NH(CH2)12COOH}; thioether N-14) | 27.8 nM
CC(C)C[C@H]1NC(=O)[C@H](CCCN)NC(=O)[C@H](Cc2ccc(C(=O)O)cc2)NC(=O)[C@H](Cc2ccc(-c3ccccc3)cc2)NC(=O)[C@H](Cc2ccc(C(=O)O)cc2)NC(=O)[C@H](Cc2cccc(C(F)(F)F)c2)NC(=O)[C@H](CC(=O)O)NC(=O)[C@H](Cc2ccc(OCC(=O)O)cc2)NC(=O)[C@H](CCN)NC(=O)CSC[C@@H](C(=O)N[C@@H](CCN)C(=O)NCCOCCOCC(=O)N[C@@H](CC(=O)NCCOCCOCC(=O)NCCCCCCCCCCCCC(=O)O)C(=O)O)NC(=O)[C@H](CO)NC(=O)[C@H](C(C)(C)O)NC(=O)[C@H](CC2CCCCC2)NC(=O)[C@H](CCN)NC1=O [Compound 2943] ({CH2CO}-[Dab]Y(Carboxymethyl)D[Phe(3-CF3)][Phe(4-COOH)][Bip][Phe(4-COOH)][Orn][dL][Dab][Cha][Val(3-OH)]SC[Dab][AEEA][βAsp][AEEA]-{NH(CH2)12COOH}; thioether N-14) | 75.8 nM
